Residues, ends and D or L forms follow the SMILES beside them.
Assays:
[1] = system: AIDS associated Kaposi's sarcoma; conditions: intranasal administration; reference 16; cited from earlier work
VEGF [2] = conditions: preclinical studies; cited from earlier work
xenograft models = conditions: in vivo; cited from earlier work
[3] = in vivo; cited from earlier work
VEGF [4] = experiment: VEGF ELISA of tumor extracts after PDT; format: in vivo, mouse; conditions: PDT plus 2 doses of agent versus PDT alone; tumors collected 24 hr after PDT
Protocol: Tumor bearing mice received either no treatment (Control), photodynamic therapy alone, or photodynamic therapy plus 2 injections of either EMAP-II or IM862 (1 hr prior to photodynamic therapy and 23 hr after photodynamic therapy). Tumor samples were collected 24 hr after PDT and assayed for VEGF expression using a commercial ELISA assay kit. Each group represents the mean ± SE of 6 individual tumor samples.
(§1) In-vivo photodynamic therapy tumor treatments were performed as previously reported on tumors measuring 6-7 mm in diameter (17). Briefly, photodynamic therapy procedures included an i.v. injection of PH (5 mg/kg) followed 24 h later with non-thermal laser tumor irradiation using an argon pumped dye laser emitting red light at 630 nm. A light dose rate of 75 mW/cm^2 and a total light dose of 200 J/cm^2 were used for all in-vivo PDT treatments. Following treatment, tumors were measured 3 times per week. Cures were defined as being disease free for at least 40 days following photodynamic therapy (17). Anti-angiogenic treatment was performed using either EMAP-II or IM862. […]
A Quantikine M mouse VEGF ELISA kit (R&D Systems, Minneapolis, Minn.) was used to quantify VEGF levels in cell culture media as well as in tumor extracts from control and treated mice. […]
The effects of the anti-angiogenic derivatives on photodynamic therapy induced VEGF levels were analyzed in the treated tumors. […]

angiogenesis = conditions: preclinical studies; cited from earlier work
BA mammary carcinomas = experiment: In-vivo PDT tumor treatment, tumor cures; parameters: species or system C3H/HeJ mice; conditions: for tumor cures or tumor regression / tumor growth parameters: anti-angiogenic treatment alone, daily IP for 10 days, no PDT; for tumor cures: single PDT (PH 5 mg/kg, 200 J/cm^2) plus daily IP injections for 10 days (EMAP-II 50 μg/kg, IM862 25 mg/kg), disease free at least 40 days
Protocol: BA mouse mammary carcinoma cells (originally obtained from the NIH tumor bank) were used in all in-vitro and in-vivo experiments (17). Cells were grown as a monolayer in RPMI 1640 media supplemented with 10% fetal calf serum (FCS) and antibiotics. The plating efficiency for the BA cells ranged from 40-60%. Subcutaneous BA mammary carcinomas were generated by trocar injection of 1-mm^3 pieces of tumor to the hind right flank of 8-12 week old female C3H/HeJ mice (17).
In-vivo photodynamic therapy tumor treatments were performed as previously reported on tumors measuring 6-7 mm in diameter (17). Briefly, photodynamic therapy procedures included an i.v. injection of PH (5 mg/kg) followed 24 h later with non-thermal laser tumor irradiation using an argon pumped dye laser emitting red light at 630 nm. A light dose rate of 75 mW/cm^2 and a total light dose of 200 J/cm^2 were used for all in-vivo PDT treatments. Following treatment, tumors were measured 3 times per week. Cures were defined as being disease free for at least 40 days following photodynamic therapy (17). Anti-angiogenic treatment was performed using either EMAP-II or IM862. Each compound was administered as daily IP injections for 10 consecutive days starting 1 h prior to photodynamic therapy light treatment. Individual IM862 doses were 25 mg/kg and individual EMAP-II doses were 50 μg/kg. Tumor tissue hypoxia was induced in selected experiments by clamping lesions for 45 minutes. Statistical analysis was performed using the X^2 test for evaluation of tumor cure rates.
A photodynamic therapy procedure, which produced a moderate cure rate alone, was used to measure positive or negative changes in tumor response when a single photodynamic therapy treatment was combined with daily injections of EMAP-II or IM862 for 10 days (17).

tumor cells = conditions: cited from earlier work
VEGF [5] = experiment: Western immunoblot of VEGF in treated tumors; parameters: species or system C3H mice; conditions: tumor lysates collected 24 hours after in-vivo PDT
Protocol: (§2) In FIG. 1A, tumors were collected immediately following treatment and evaluated for HIF-1α expression by Western immunoblot analysis. HIF-1α was not detectable in control tumors measuring 6-7 mm in diameter. […] In FIG. 1B, separate tumors were collected 24 hr after photodynamic therapy or clamping (45 min) and assayed for VEGF expression by Western immunoblot analysis. Expression of actin was used to monitor protein loading.
as §1
(§3) Tumors were collected at various times after treatment, homogenized with a polytron in 1X reporter lysis buffer (Promega, Wis.) and evaluated for protein expression as described previously (18). […]

HIF-1α = experiment: Western immunoblot of HIF-1α in treated tumors; format: in vivo, C3H mice
Protocol: as §2, §1, §3

VEGF [6] = experiment: VEGF ELISA of culture media of BA mammary carcinoma cells; format: cell-based, mouse; conditions: in-vitro PDT, PH 25 μg/ml, 210 J/m^2, measured 24 hr after treatment
[7] = system: growing capillary endothelial cells; conditions: time and dose dependent; reference 15; cited from earlier work
tumor growth = conditions: reference 15; cited from earlier work
[8] = in vivo; cited from earlier work; remark: listed apart in the source
vessel ingrowth = conditions: experimental angiogenesis models and primary tumors; cited from earlier work

N[C@@H](CCC(=O)O)C(=O)N[C@@H](Cc1c[nH]c2ccccc12)C(=O)O [IM862, L-glutamyl-L-tryptophan] (H-Glu-Trp-OH)
antitumor activity in patients [1]: exhibits antitumor activity
VEGF production in monocytic lineage cells (VEGF [2]): inhibits VEGF production
tumor growth in xenograft models (xenograft models): inhibits tumor growth
safety and tolerability [3]: safe and well tolerated
VEGF levels in PDT treated tumors (ELISA) (VEGF [4]): decrease in VEGF levels
angiogenesis in chorioallantoic membrane assays (angiogenesis): inhibits angiogenesis
tumor cures or tumor regression (BA mammary carcinomas): did not produce any tumor cures or tumor regression
tumor growth parameters (BA mammary carcinomas): only slightly modified tumor growth parameters
tumor cures (BA mammary carcinomas): 78%
direct cytotoxic effect on tumor cells (tumor cells): no direct cytotoxic effect

Photofrin porfimer sodium
VEGF expression within treated lesions (Western) (VEGF [5]): induced significant increases in VEGF expression
HIF-1α expression (Western) (HIF-1α; PDT (PH 5 mg/kg; 200 J/cm^2), tumors collected immediately following treatment): induced HIF-1α expression
time after photodynamic therapy at which HIF-1α expression is observed (HIF-1α; PDT of BA tumors in C3H mice): ≤ 5 min
VEGF levels in culture media (VEGF [6]): modestly increase in VEGF levels
cure rate (BA mammary carcinomas; photodynamic therapy alone (PH 5 mg/kg i.v., 630 nm, 200 J/cm^2), cure = disease free for at least 40 days): 39%

B1: EMAP-II: recombinant single chain polypeptide which inhibits tumor growth and has anti-angiogenic activity (protein, UniProt Q12904 147-312, looked up)
Endothelial …: SKPIDVSRLDLRIGCIITARKHPDADSLYVEEVDVGEIAPRTVVSGLVNHVPLEQMQNRMVILLCNLKPAKMRGVLSQAMVMCASSPEKIEILAPPNGSVPGDRITFDAFPGEPDKELNPKKKIWEQIQPDLHTNDECVATYKGVPFEVKGKGVCRAQTMSNSGIK
modifications: Endothelial monocyte-activating polypeptide 2
apoptosis in growing capillary endothelial cells [7]: induces apoptosis
VEGF levels in PDT treated tumors (ELISA) (VEGF [4]): statistically significant decrease
tumor growth (tumor growth): inhibits tumor growth
tumor cures or tumor regression (BA mammary carcinomas): did not produce any tumor cures or tumor regression
tumor growth parameters (BA mammary carcinomas): only slightly modified tumor growth parameters
tumor cures (BA mammary carcinomas): 89%
toxicity in normal organs [8]: does not induce toxicity
vessel ingrowth (vessel ingrowth): prevents vessel ingrowth

— patent publication US20020026945A1, “Enhancement of photodynamic therapy by anti-angiogenic treatment” (priority 2000, published 2002)
